In patent US20260207575A1, “P[…] THE TREATMENT OF JUVENILE HUNTINGTON DISEASE” (Prilenia Neurotherapeutics Ltd., priority 2022, published 2026):
Like-named read-outs stand apart in the source and are kept apart here.

What was measured:
[1] = test system: dopamine D2/D3 receptors; conditions: low-affinity binding; cited from earlier work
[2] = test system: HD patients with CAG repeat length >=50; conditions: for TFC LS Mean change vs placebo: 45 mg bid (n=1) vs placebo (n=4); for TFC LS Mean change from baseline: n=1
Protocol: (§1) All patients began treatment with a 2-week titration period (45 mg once a day) followed by full-dose treatment for 63-78 weeks.
(§2) Efficacy was evaluated using the following clinical endpoints: Change from Baseline to Week 78 in composite UHDRS (cUHDRS) total score, Total Functional Capacity (UHDRS-TFC) score and Stroop Word Reading (SWR) testing for cognitive assessment.
The UHDRS-TFC score is a commonly used and regulatory-accepted clinical scale used for assessing the functional capacity of subjects with HD and monitoring the disease's progression and severity over time. This score ranges from 0 to 13 and higher scores indicate better functional capacity. A score of 13 means that the individual is entirely functional with no indications of impairment, while a score of 0 indicates complete dependence on others for daily activities.

[3] = test system: HD patients with CAG repeat length >=50; conditions: 45 mg bid; up to 78 weeks; CAG >=50
Protocol: as §1, §2

[4] = test system: HD patients with CAG repeat length >=50; conditions: for cUHDRS LS Mean change vs placebo: 45 mg bid (n=1) vs placebo (n=4); for cUHDRS LS Mean change from baseline: n=1
Protocol: as §1, §2
The composite Unified Huntington's Disease Rating Scale (cUHDRS) is a clinical scale used for evaluating the severity and progression of Huntington's disease (HD).
The cUHDRS is a composite scale assessing overall progression of independent key aspects of HD: functional ability, motor symptoms, and cognitive function. cUHDRS comprises four subscales: Total Functional Capacity (TFC), Total Motor Score (TMS), and 2 cognitive measures: the Symbol-Digit Modality Test (SDMT), and Stroop Word Reading (SWR) Test.
The cUHDRS score is a validated scale used for tracking disease progression and evaluating treatment effectiveness in subjects with HD. Higher scores on cUHDRS indicates better overall disease state. By measuring multiple domains, the cUHDRS provides a global and comprehensive assessment of the disease stage.

[5] = 45 mg bid, up to 78 weeks, CAG >=50
[6] = Week 26, 45 mg bid, CAG >=50, positive change = improvement

CCCN1CCC(c2cccc(S(C)(=O)=O)c2)CC1 [Pridopidine, 4-[3-(methylsulfonyl)phenyl]-1-propyl-piperidine]
binding affinity to dopamine D2/D3 receptors [1]: in the micromolar range
effect on TFC / functional capacity compared to placebo (in words) [2, 5]: marked improvement
TFC LS Mean change vs placebo ([2]; Week 26): 2.99 points
TFC LS Mean change from baseline [2, 6]: 2.96
TFC LS Mean change vs placebo ([2]; Week 39): 3.06 points
TFC LS Mean change from baseline ([2]; Week 39, 45 mg bid, CAG >=50): 2.96
TFC LS Mean change vs placebo ([2]; Week 52): 3.00 points
TFC LS Mean change from baseline ([2]; Week 52, 45 mg bid, CAG >=50): 2.91
TFC LS Mean change vs placebo ([2]; Week 65): 2.90 points
TFC LS Mean change from baseline ([2]; Week 65, 45 mg bid, CAG >=50): 2.61
TFC LS Mean change vs placebo ([2]; Week 78): 3.45 points
TFC LS Mean change from baseline ([2]; Week 78, 45 mg bid, CAG >=50): 2.93
effect on SWR / cognitive function compared to placebo (in words) [3]: marked improvement
effect on cUHDRS / disease progression compared to placebo (in words) [4, 5]: marked improvement
cUHDRS LS Mean change vs placebo ([4]; Week 26): 2.52 points
cUHDRS LS Mean change from baseline [4, 6]: 1.79
cUHDRS LS Mean change vs placebo ([4]; Week 39): 2.66 points
cUHDRS LS Mean change from baseline ([4]; Week 39, 45 mg bid, CAG >=50): 1.83
cUHDRS LS Mean change vs placebo ([4]; Week 52): 2.49 points
cUHDRS LS Mean change from baseline ([4]; Week 52, 45 mg bid, CAG >=50): 1.67
cUHDRS LS Mean change vs placebo ([4]; Week 65): 2.32 points
cUHDRS LS Mean change from baseline ([4]; Week 65, 45 mg bid, CAG >=50): 1.41
cUHDRS LS Mean change vs placebo ([4]; Week 78): 2.52 points
cUHDRS LS Mean change from baseline ([4]; Week 78, 45 mg bid, CAG >=50): 1.42
